Source: patent US20160052898A1, “NOVEL COMPOUNDS” (BAYER PHARMA AKTIENGESELLSCHAFT, priority 2013, published 2016)
Where a name gives a salt, the structure may show the parent alone.

Tests used:
[1] = tested on: HCT116 FOP control reporter cell line; experiment: HCT116 FOP control vector reporter assay (non-functional TCF elements); assay type: cell-based; conditions: Homo sapiens, HCT-116, 36 h, HCT116 FOP control reporter cells, luciferase expression, 36 hours incubation, 50 μM to 15 nM; read-out: HCT116 FOPFlash IC50
Description: (§1) In a parallel approach, HCT116 cells were cotransfected with the FOP control vector and pcDNA3. The FOP vector is identical to the TOP construct, but it contains instead of functional TCF elements a randomized, non-functional sequence. For this transfection a stable transfected cell line was generated as well.
(§2) In preparation of the assay, the two cell lines were plated 24 hrs before at 10000 cells per well of a 384 micro titre plate (MTP) in 30 μL growth medium. Selective inhibitory activity for small molecules on the mutated Wnt pathway was determined after parallel incubation of both (TOP and FOP) HCT116 reporter cell lines with a compound dilution series from 50 μM to 15 nM in steps of 3.16-fold dilutions in CAFTY buffer (130 mM NaCl, 5 mM KCl, 20 mM HEPES, 1 mM MgCl2, 5 mM NaHCO3, pH 7.4) containing 2 mM Ca^2+ and 0.01% BSA. The compounds were thereby serially prediluted in 100% DMSO and thereafter in addition 50 fold into the CAFTY compound dilution buffer (described above). From this dilution 10 μL were added to the cells in 30 μL growth medium and incubated for 36 hours at 37° C. and 5% CO2. Thereafter luciferase assay buffer (1:1 mixture of luciferase substrate buffer (20 mM Tricine, 2.67 mM MgSO4, 0.1 mM EDTA, 4 mM DTT, 270 μM Coenzyme A, 470 μM Luciferin, 530 μM ATP, ph adjusted to pH 7.8 with a sufficient volume of 5M NaOH) and Triton buffer (30 mL Triton X-100, 115 mL glycerol, 308 mg Dithiothreitol, 4.45 g Na2HPO4.2 H2O, 3.03 g Tris.HCL, ad 1 l H20, pH 7.8) was added as equal volume to the compound solution on the cells to determine luciferase expression as a measure of Wnt signaling activity in a luminometer.

[2] = tested on: constitutive active colorectal cancer cell (CRC) Wnt pathway; experiment: HCT116 Super TopFlash cellular reporter assay (constitutive active Wnt pathway); assay type: cell-based; conditions: Homo sapiens, HCT-116, 36 h, HCT116 TOP reporter cells, luciferase expression, 36 hours incubation, 50 μM to 15 nM
Description: In order to discover and characterize small molecules which inhibit the constitutive active colorectal cancer cell (CRC) Wnt pathway, a cellular reporter assay was employed. The corresponding assay cell was generated by transfection of the colorectal cancer cell line HCT116 (ATCC, #CCL-247) with the Super TopFlash vector (Morin, Science 275, 1997, 1787-1790; Molenaar et al., Cell 86 (3), 1996, 391-399). The HCT116 cell line is cultivated at 37° C. and 5% CO2 in DMEM/F-12 (Life Technologies, #11320-074), supplemented with 2 mM glutamine, 20 mM HEPES, 1.4 mM pyruvate, 0.15% Na-bicarbonate and 10% foetal bovine serum (GIBCO, #10270), this cancer cell line is pathophysiological relevant since it carries a deletion of position S45 in the β-catenin gene, leading to constitutive active Wnt signaling. Stable transfectants were generated by cotransfection with pcDNA3 and selection of stable transfected cells with 1 mg/ml G418.
as §1, §2

Row | SMILES | IC50 [1] | IC50 [2]
1 | COc1ccc(NC(=O)c2ccc(-c3ccccc3)cc2)cc1NC(=O)CN1CCCC(OC)C1 (centres unmarked) [Example 38, N-(4-methoxy-3-{[(3-methoxypiperidin-1-yl)acetyl]amino}phenyl)biphenyl-4-carboxamide] | ≥ 50 µM | 2 µM
2 | COCCNCC(=O)Nc1cc(NC(=O)c2ccc(-c3ccccc3)cc2)ccc1OC [Example 42, N-(4-methoxy-3-{[N-(2-methoxyethyl)glycyl]amino}phenyl)biphenyl-4-carboxamide] | ≥ 50 µM | 1.11 µM
3 | COc1ccc(NC(=O)c2ccc(-c3ccccc3)cc2)cc1NC(=O)CN1CCOC[C@H]1CCO [Example 44, N-[3-({[(3R)-3-(2-hydroxyethyl)morpholin-4-yl]acetyl}amino)-4-methoxyphenyl]biphenyl-4-carboxamide] | ≥ 50 µM | 2.9 µM
4 | COc1ccc(NC(=O)c2ccc(-c3ccccc3)cc2)cc1NC(=O)CN1CCC(O)CC1 [Example 45, N-(3-{[(4-hydroxypiperidin-1-yl)acetyl]amino}-4-methoxyphenyl)biphenyl-4-carboxamide] | ≥ 50 µM | 3.85 µM
5 | COc1ccc(NC(=O)c2ccc(-c3ccccc3)cc2)cc1NC(=O)CN1CCC2(CCO2)C1 (centres unmarked) [Example 46, N-{4-methoxy-3-[(1-oxa-6-azaspiro[3.4]oct-6-ylacetyl)amino]phenyl}biphenyl-4-carboxamide] | ≥ 50 µM | 3.45 µM
6 | COc1ccc(NC(=O)c2ccc(-c3ccccc3)cc2)cc1NC(=O)CN1CCN(C)CC1 [Example 47, N-(4-methoxy-3-{[(4-methylpiperazin-1-yl)acetyl]amino}phenyl)biphenyl-4-carboxamide] | 33.5 µM | 0.718 µM
7 | COCCN(C)CC(=O)Nc1cc(NC(=O)c2ccc(-c3ccccc3)cc2)ccc1OC [Example 49, N-(4-methoxy-3-{[N-(2-methoxyethyl)-N-methylglycyl]amino}phenyl)biphenyl-4-carboxamide] | ≥ 50 µM | 2.65 µM
8 | CCN1CCN(CC(=O)Nc2cc(NC(=O)c3ccc(-c4ccccc4)cc3)ccc2OC)CC1 [Example 50, N-(3-{[(4-ethylpiperazin-1-yl)acetyl]amino}-4-methoxyphenyl)biphenyl-4-carboxamide] | 23 µM | 3.64 µM
9 | COc1ccc(NC(=O)c2ccc(-c3ccccc3)cc2)cc1NC(=O)CN1CCN(S(C)(=O)=O)CC1 [Example 51, N-[4-methoxy-3-({[4-(methylsulfonyl)piperazin-1-yl]acetyl}amino)phenyl]biphenyl-4-carboxamide] | ≥ 50 µM | 3.18 µM
10 | COc1ccc(NC(=O)c2ccc(-c3ccccc3)cc2)cc1NC(=O)CN1CCOCC1 [Example 52, N-{4-methoxy-3-[(morpholin-4-ylacetyl)amino]phenyl}biphenyl-4-carboxamide] | ≥ 50 µM | 0.47 µM
11 | COc1ccc(NC(=O)c2ccc(-c3ccccc3)cc2)cc1NC(=O)[C@H](C)N1CCOCC1 [Example 54, N-(4-methoxy-3-{[(2S)-2-(morpholin-4-yl)propanoyl]amino}phenyl)biphenyl-4-carboxamide] | ≥ 50 µM | 0.35 µM
12 | COc1ccc(NC(=O)c2ccc(-c3ccccc3)cc2)cc1NC(=O)[C@@H](C)N1CCOCC1 [Example 55, N-(4-methoxy-3-{[(2R)-2-(morpholin-4-yl)propanoyl]amino}phenyl)biphenyl-4-carboxamide] | ≥ 50 µM | 0.834 µM
13 | COc1ccc(NC(=O)c2ccc(-c3ccccc3)cc2)cc1NC(=O)[C@@H](C)N1CC2CCC(C1)O2 [Example 57, N-(4-methoxy-3-{[(2R)-2-(8-oxa-3-azabicyclo[3.2.1]oct-3-yl)propanoyl]amino}phenyl)biphenyl-4-carboxamide] | ≥ 50 µM | 0.49 µM
14 | C[C@H](C(=O)Nc1cc(NC(=O)c2ccc(-c3ccccc3)cc2)ccc1OC(F)(F)F)N1CC2CCC(C1)O2 [Example 60, N-[3-{[(2R)-2-(8-oxa-3-azabicyclo[3.2.1]oct-3-yl)propanoyl]amino}-4-(trifluoromethoxy)phenyl]biphenyl-4-carboxamide] | ≥ 50 µM | 0.582 µM
15 | C[C@H](C(=O)Nc1cc(NC(=O)c2ccc(-c3ccccc3)cc2)ccc1OC(F)(F)F)N1CCOCC1 [Example 63, N-[3-{[(2R)-2-(morpholin-4-yl)propanoyl]amino}-4-(trifluoromethoxy)phenyl]biphenyl-4-carboxamide] | ≥ 50 µM | 0.265 µM
16 | COc1ccc(NC(=O)c2ccc(-c3ccccc3)cc2)cc1N(Cc1ccccc1)C(=O)CN1CCOCC1 [Example 64, N-{3-[benzyl(morpholin-4-ylacetyl)amino]-4-methoxyphenyl}biphenyl-4-carboxamide] | 48 µM | 3.5 µM
17 | COc1ccc(NC(=O)c2ccc(-c3ccccc3)cc2)cc1N(C)C(=O)CN1CCOCC1 [Example 65, N-{4-methoxy-3-[methyl(morpholin-4-ylacetyl)amino]phenyl}biphenyl-4-carboxamide] | 28 µM | 2.2 µM
18 | CC(C)(C)c1ccc(NC(=O)c2ccc(-c3ccccc3)cc2)cc1NC(=O)CN1CCOCC1 [Example 67, N-{4-tert-butyl-3-[(morpholin-4-ylacetyl)amino]phenyl}biphenyl-4-carboxamide] | 9.8 µM | 0.21 µM
19 | O=C(CN1CCOCC1)Nc1cc(NC(=O)c2ccc(-c3ccccc3)cc2)ccc1Br [Example 68, N-{4-bromo-3-[(morpholin-4-ylacetyl)amino]phenyl}biphenyl-4-carboxamide] | ≥ 50 µM | 0.513 µM
20 | O=C(CN1CCOCC1)Nc1cc(NC(=O)c2ccc(-c3ccccc3)cc2)ccc1Cl [Example 69, N-{4-chloro-3-[(morpholin-4-ylacetyl)amino]phenyl}biphenyl-4-carboxamide] | 9.3 µM | 0.81 µM
21 | Cc1ccc(NC(=O)c2ccc(-c3ccccc3)cc2)cc1NC(=O)CN1CCOCC1 [Example 70, N-{4-methyl-3-[(morpholin-4-ylacetyl)amino]phenyl}biphenyl-4-carboxamide] | ≥ 50 µM | 1.35 µM
22 | COC(=O)c1cccc(-c2ccc(C(=O)Nc3ccc(OC)c(NC(=O)CN4CCOCC4)c3)cc2)c1 [Example 77, methyl 4′-({4-methoxy-3-[(morpholin-4-ylacetyl)amino]phenyl}carbamoyl)biphenyl-3-carboxylate] | ≥ 50 µM | 3.95 µM
23 | COc1ccc(NC(=O)c2ccc(-c3cccc(C(F)(F)F)c3)cc2)cc1NC(=O)CN1CCOCC1 [Example 78, N-{4-methoxy-3-[(morpholin-4-ylacetyl)amino]phenyl}-3′-(trifluoromethyl)biphenyl-4-carboxamide] | ≥ 50 µM | 2.9 µM
24 | O=C(CN1CCOCC1)Nc1cc(NC(=O)c2ccc(-c3ccccc3)cc2)ccc1O [Example 84, N-{4-hydroxy-3-[(morpholin-4-ylacetyl)amino]phenyl}biphenyl-4-carboxamide] | ≥ 50 µM | 2.03 µM
25 | COCCCOCc1ccc(C(=O)Nc2ccc(-c3ccccc3)cc2)cc1NC(=O)CN1CCOCC1 [Example 87, N-(biphenyl-4-yl)-4-[(3-methoxypropoxy)methyl]-3-[(morpholin-4-ylacetyl)amino]benzamide] | 34 µM | 0.196 µM
26 | NCCCOc1ccc(C(=O)Nc2ccc(-c3ccccc3)cc2)cc1NC(=O)C1(N2CCOCC2)CC1 [Example 89, 4-(3-aminopropoxy)-N-(biphenyl-4-yl)-3-({[1-(morpholin-4-yl)cyclopropyl]carbonyl}amino)benzamide hydrochloride (1:1)] | 20.2 µM | 0.676 µM
27 | COCCCOc1ccc(C(=O)Nc2ccc(-c3ccccc3)cc2)cc1NC(=O)CN1CCOCC1 [Example 91, N-(biphenyl-4-yl)-4-(3-methoxypropoxy)-3-[(morpholin-4-ylacetyl)amino]benzamide] | ≥ 50 µM | 0.262 µM
28 | COCCOc1ccc(C(=O)Nc2ccc(-c3ccccc3)cc2)cc1NC(=O)CN1CCOCC1 [Example 92, N-(biphenyl-4-yl)-4-(2-methoxyethoxy)-3-[(morpholin-4-ylacetyl)amino]benzamide] | ≥ 50 µM | 0.448 µM
